Measurements: patent US20230066011A1, “PYRROLOPYRIMIDINE DERIVATIVE, AND PHARMACEUTICAL COMPOSITION FOR PREVENTING OR TREATING PROTEIN KINASE-RELATED DISEASE COMPRISING SAME AS ACTIVE INGREDIENT” (VORONOI CO., LTD., priority 2019, published 2023)

What was measured:
Format in all cases: biochemical
human GST-DYRK1A = target: T1, human GST-DYRK1A (Homo sapiens, UniProt Q13627); assay: GST-DYRK1A enzyme inhibition, ADP-Glo kinase assay; conditions: ATP 10 μM, GST-DYRK1A full length, read-out: DYRK1 IC50
T1 construct: purified human GST-DYRK1A (full length, Thermo Scientifics) enzyme; purchased Thermo Scientifics
In short: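 Full-length enzyme (10 ng) was incubated with 10 μM ATP and a specific substrate for 1 h at 25 °C in 40 mM Tris-HCl pH 7.4, 20 mM MgCl2, 0.5 mg/mL BSA, 50 μM DTT. Luminescence was read against a solvent control, and IC50 values were derived from 3 data sets.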

human GST-CLK1 = target: T2, human GST-CLK1 (Homo sapiens, UniProt P49759); assay: GST-CLK1 enzyme inhibition, ADP-Glo kinase assay; conditions: ATP 10 μM, GST-CLK1 129-end
T2 construct: purified human GST-CLK1 (129-end, SignalChem) enzyme; purchased SignalChem
In short: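 ADP-Glo luminescence read-out, relative to untreated solvent control, gave IC50 (nM) from triplicate data sets. Reactions ran an hour at 25° C with 3 ng GST-CLK1 (residues 129-end), 10 μM ATP and specific substrate in Tris-HCl pH 7.4 buffer with MgCl2, BSA and DTT.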

LRRK2 (G2019S) = LRRK2 (G2019S) (Homo sapiens, UniProt Q5S007, G2019S); assay: LRRK2 G2019S enzyme inhibition, ADP-Glo kinase assay; set-up: purchased SignalChem L10-12GG; conditions: ATP 25 μM
In short: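 IC50 derived from luminescent ADP-Glo readout against untreated solvent control, twelve final compound concentrations from 50 μM downward. Reaction: recombinant human LRRK2 G2019S enzyme, 25 μM ATP, substrate, pH 7.4 Tris buffer with MgCl2/BSA/DTT, 25° C. for 2 hours.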

T2 sequence (P49759 129-484 limits assumed): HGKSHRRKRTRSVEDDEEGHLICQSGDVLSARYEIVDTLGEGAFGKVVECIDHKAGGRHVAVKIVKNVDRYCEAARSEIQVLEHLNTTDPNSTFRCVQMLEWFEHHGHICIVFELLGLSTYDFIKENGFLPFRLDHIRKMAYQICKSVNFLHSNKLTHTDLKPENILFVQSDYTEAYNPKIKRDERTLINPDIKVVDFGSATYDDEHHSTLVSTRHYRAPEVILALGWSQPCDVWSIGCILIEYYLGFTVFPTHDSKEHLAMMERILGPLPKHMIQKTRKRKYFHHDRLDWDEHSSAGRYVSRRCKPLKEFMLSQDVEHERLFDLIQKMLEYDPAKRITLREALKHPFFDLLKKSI
Chain of LRRK2 (G2019S) (Q5S007 970-2527 G2019S limits assumed): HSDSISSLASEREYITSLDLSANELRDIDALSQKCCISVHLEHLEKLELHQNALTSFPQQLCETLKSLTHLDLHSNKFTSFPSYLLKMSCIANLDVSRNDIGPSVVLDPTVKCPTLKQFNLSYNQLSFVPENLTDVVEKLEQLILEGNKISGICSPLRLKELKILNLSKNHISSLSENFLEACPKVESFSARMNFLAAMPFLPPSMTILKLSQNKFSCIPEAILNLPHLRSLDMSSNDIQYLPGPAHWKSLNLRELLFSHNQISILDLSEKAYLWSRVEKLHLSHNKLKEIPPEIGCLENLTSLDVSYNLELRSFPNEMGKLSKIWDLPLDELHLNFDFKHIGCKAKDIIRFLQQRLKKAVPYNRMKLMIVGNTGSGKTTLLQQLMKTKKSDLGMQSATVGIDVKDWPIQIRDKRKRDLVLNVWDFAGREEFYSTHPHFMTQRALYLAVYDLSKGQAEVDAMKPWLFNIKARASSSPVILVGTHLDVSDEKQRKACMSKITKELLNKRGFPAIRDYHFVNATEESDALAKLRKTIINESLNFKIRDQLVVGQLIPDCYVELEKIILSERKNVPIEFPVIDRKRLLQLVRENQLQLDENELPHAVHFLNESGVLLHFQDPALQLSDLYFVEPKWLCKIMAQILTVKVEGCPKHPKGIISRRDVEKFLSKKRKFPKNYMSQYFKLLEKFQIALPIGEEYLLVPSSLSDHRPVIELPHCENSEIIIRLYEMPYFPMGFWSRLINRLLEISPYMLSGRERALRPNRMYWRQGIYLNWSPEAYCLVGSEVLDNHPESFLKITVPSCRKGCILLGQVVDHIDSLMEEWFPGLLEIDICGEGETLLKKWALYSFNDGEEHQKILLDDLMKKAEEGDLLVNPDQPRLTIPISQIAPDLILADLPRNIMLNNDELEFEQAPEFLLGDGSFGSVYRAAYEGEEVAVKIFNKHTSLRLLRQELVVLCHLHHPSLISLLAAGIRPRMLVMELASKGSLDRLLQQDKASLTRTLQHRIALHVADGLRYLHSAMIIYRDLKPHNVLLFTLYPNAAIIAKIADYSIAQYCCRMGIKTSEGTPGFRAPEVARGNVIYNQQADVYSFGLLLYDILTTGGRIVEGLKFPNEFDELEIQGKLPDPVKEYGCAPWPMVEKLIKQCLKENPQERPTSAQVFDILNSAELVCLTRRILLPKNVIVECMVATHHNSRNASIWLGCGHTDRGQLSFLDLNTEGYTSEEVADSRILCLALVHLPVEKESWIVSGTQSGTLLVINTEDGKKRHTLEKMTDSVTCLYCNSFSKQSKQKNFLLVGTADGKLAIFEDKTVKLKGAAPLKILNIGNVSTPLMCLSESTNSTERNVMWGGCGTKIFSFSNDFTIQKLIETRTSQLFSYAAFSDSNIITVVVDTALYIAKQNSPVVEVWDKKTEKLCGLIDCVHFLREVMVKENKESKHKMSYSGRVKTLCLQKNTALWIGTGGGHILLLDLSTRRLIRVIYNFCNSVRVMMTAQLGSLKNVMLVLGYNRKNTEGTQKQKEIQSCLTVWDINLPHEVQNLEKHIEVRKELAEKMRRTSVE

IC50 (human GST-DYRK1A) [nM]	IC50 (human GST-CLK1) [nM]	IC50 (LRRK2 (G2019S)) [nM]	SMILES
301 to 1000	301 to 1000	< 100	COc1cc(P2(=O)CCN(C3COC3)CC2)ccc1Nc1nc(NCCS(C)(=O)=O)c2c(C#N)c[nH]c2n1 [Example 314, 2-((2-methoxy-4-(1-(oxetan-3-yl)-4-oxido-1,4-azaphosphinan-4-yl)phenyl)amino)-4-((2-(methyl-sulfonyl)eth-yl)amino)-7H-pyrrolo[2,3-d]pyrimidine-5-carbonitrile]
301 to 1000	< 100	101 to 300	N#Cc1c[nH]c2nc(Nc3ccc(C(=O)N4CC(CO)(CO)C4)c4c3OCCO4)nc(NC3CC3)c12 [Example 332, 2-((8-(3,3-bis (hydroxymethyl)azetidine-1-carbonyl)-2,3-dihydrobenzo[b] [1,4]dioxin-5-yl)amino)-4-(cyclopropyl-amino)-7H-pyrrolo[2,3-d]pyrimidine-5-carbonitrile]
301 to 1000	< 100	< 100	CS(=O)(=O)CCNc1nc(Nc2ccc(C(=O)N3CCC(N4CCOCC4)CC3)c3c2OCC3)nc2[nH]cc(C#N)c12 [Example 345, 4-((2-(methyl-sulfonyl)eth-yl)amino)-2-((4-(4-morpholino-piperidine-1-carbonyl)-2,3-dihydro-benzofuran-7-yl)amino)-7H-pyrrolo[2,3-d]pyrimidine-5-carbonitrile]
< 100	< 100	< 100	CC(C)Nc1nc(Nc2ccc(C(=O)N3CCC(N4CCOCC4)CC3)c3c2OCC3)nc2[nH]cc(C#N)c12 [Example 353, 4-(isopropylamino)-2-((4-(4-morpholino-piperidine-1-carbonyl)-2,3-dihydro-benzofuran-7-yl)amino)-7H-pyrrolo[2,3-d]pyrimidine-5-carbonitrile]
301 to 1000	< 100	< 100	CC[C@@H](C)Nc1nc(Nc2ccc(C(=O)N3CCOCC3)c3c2OCC3)nc2[nH]cc(C#N)c12 [Example 354, (R)-4-(sec-butylamino)-2-((4-(morpholine-4-carbonyl)-2,3-dihydrobenzo-furan-yl)amino)-7H-pyrrolo[2,3-d]pyrimidine-5-carbonitrile]
< 100	< 100	< 100	CC[C@@H](C)Nc1nc(Nc2ccc(C(=O)N3CCC(N4CCOCC4)CC3)c3c2OCC3)nc2[nH]cc(C#N)c12 [Example 355, (R)-4-(sec-butylamino)-2-((4-(4-morpho-linopiperidine-1-carbonyl)-2,3-dihydro-benzofuran-7-yl)amino)-7H-pyrrolo[2,3-d]pyrimidine-5-carbonitrile]
301 to 1000	301 to 1000	< 100	CC[C@H](C)Nc1nc(Nc2ccc(C(=O)N3CCOCC3)c3c2OCC3)nc2[nH]cc(C#N)c12 [Example 356, (S)-4-(sec-butylamino)-2-((4-(morpholine-4-carbonyl)-2,3-dihydro-benzofuran-7-yl)amino)-7H-pyrrolo[2,3-d]pyrimidine-5-carbonitrile]
301 to 1000	301 to 1000	< 100	CC[C@H](C)Nc1nc(Nc2ccc(C(=O)N3CCOCC3)c3c2OCCO3)nc2[nH]cc(C(F)(F)F)c12 [Example 381, (S)-(8-((4-(sec-butylamino)-5-(trifluoromethyl)-7H-pyrrolo[2,3-d]pyrimidin-2-yl)amino)-2,3-dihydrobenzo[b] [1,4]dioxin-5-yl)(morpholino) methanone]
301 to 1000	< 100	< 100	COc1cc(S(C)(=O)=O)ccc1Nc1nc(N[C@H]2CCOC2)c2c(C(F)(F)F)c[nH]c2n1 [Example 384, (S)-N^2-(2-methoxy-4-(methylsulfonyl)phenyl)-N^4-(tetrahydrofuran-3-yl)-5-(trifluoromethyl)-7H-pyrrolo[2,3-d]pyrimidine-2,4-diamine]
301 to 1000	301 to 1000	< 100	CC[C@H](C)Nc1nc(Nc2ccc(P(C)(C)=O)cc2OC)nc2[nH]cc(C(F)(F)F)c12 [Example 385, (S)-(4-((4-(sec-butylamino)-5-(trifluoromethyl)-7H-pyrrolo[2,3-d]pyrimidin-2-yl)amino)-3-methoxyphenyl) dimethyl-phosphine oxide]
301 to 1000	301 to 1000	< 100	COc1cc(P(C)(C)=O)ccc1Nc1nc(NC2CCCC2)c2c(C(F)(F)F)c[nH]c2n1 [Example 387, (4-((4-(cyclo-pentylamino)-5-(trifluoromethyl)-7H-pyrrolo[2,3-d]pyrimidin-2-yl)amino)-3-methoxy-phenyl)di-methylphosphine oxide]
< 100	< 100	< 100	COc1cc(P(C)(C)=O)ccc1Nc1nc(N[C@@H]2CCOC2)c2c(C(F)(F)F)c[nH]c2n1 [Example 388, (R)-(3-methoxy-4-((4-((tetrahydrofuran-3-yl)amino)-5-(trifluoromethyl)-7H-pyrrolo[2,3-d]pyrimidin-2-yl)amino)phenyl)di-methylphosphine oxide]
301 to 1000	< 100	< 100	COc1cc(P(C)(C)=O)ccc1Nc1nc(NC2CCOCC2)c2c(C(F)(F)F)c[nH]c2n1 [Example 389, (3-methoxy-4-((4-((tetrahydro-2H-pyran-4-yl)amino)-5-(trifluoromethyl)-7H-pyrrolo[2,3-d]pyrimidin-2-yl)amino)phenyl) dimethyl-phosphine oxide]
301 to 1000	< 100	< 100	COc1cc(P(C)(C)=O)ccc1Nc1nc(NCC2CC2)c2c(C(F)(F)F)c[nH]c2n1 [Example 390, (4-((4-((cyclo-propylmeth-yl)amino)-5-(trifluoromethyl)-7H-pyrrolo[2,3-d]pyrimidin-2-yl)amino)-3-methoxyphenyl) dimethyl-phosphine oxide]
301 to 1000	301 to 1000	< 100	COc1cc(P(C)(C)=O)ccc1Nc1nc(NCC2CCC2)c2c(C(F)(F)F)c[nH]c2n1 [Example 391, (4-((4-((cyclo-butylmethyl)amino)-5-(trifluoromethyl)-7H-pyrrolo[2,3-d]pyrimidin-2-yl)amino)-3-methoxyphenyl) dimethyl-phosphine oxide]
301 to 1000	301 to 1000	301 to 1000	COc1cc(P(C)(C)=O)ccc1Nc1nc(NCC2CCCC2)c2c(C(F)(F)F)c[nH]c2n1 [Example 392, (4-((4-((cyclo-pentylmeth-yl)amino)-5-(trifluoromethyl)-7H-pyrrolo[2,3-d]pyrimidin-2-yl)amino)-3-methoxyphenyl) dimethyl-phosphine oxide]
301 to 1000	301 to 1000	< 100	CCCCNc1nc(Nc2ccc(P(C)(C)=O)cc2OC)nc2[nH]cc(C(F)(F)F)c12 [Example 393, (4-((4-(butylamino)-5-(trifluoromethyl)-7H-pyrrolo[2,3-d]pyrimidin-2-yl)amino)-3-methoxyphenyl) dimethyl-phosphine oxide]
101 to 300	< 100	< 100	CCNc1nc(Nc2ccc(P3(=O)CCN(C4CC4)CC3)cc2OC)nc2[nH]cc(C(F)(F)F)c12 [Example 398, 1-cyclopropyl-4-(4-((4-(ethylamino)-5-(trifluoromethyl)-7H-pyrrolo[2,3-d]pyrimidin-2-yl)amino)-3-methoxyphenyl)-1,4-azaphosphinane 4-oxide]
301 to 1000	101 to 300	101 to 300	COc1cc(P2(=O)CCN(C3CC3)CC2)ccc1Nc1nc(NC2CCC2)c2c(C(F)(F)F)c[nH]c2n1 [Example 406]
301 to 1000	< 100	< 100	COc1cc(P2(=O)CCN(C3CC3)CC2)ccc1Nc1nc(N[C@H]2CCOC2)c2c(C(F)(F)F)c[nH]c2n1 [Example 417, (S)-1-cyclo-propyl-4-(3-methoxy-4-((4-((tetrahydrofuran-3-yl)amino)-5-(trifluoromethyl)-7H-pyrrolo[2,3-d]pyrimidin-2-yl)amino)phenyl)-1,4-azaphosphinane 4-oxide]
301 to 1000	< 100	< 100	COc1cc(P2(=O)CCN(C3CC3)CC2)ccc1Nc1nc(NC2CCOCC2)c2c(C(F)(F)F)c[nH]c2n1 [Example 419, 1-cyclopropyl-4-(3-methoxy-4-((4-((tetrahydro-2H-pyran-4-yl)amino)-5-(trifluoro)-7H-pyrrolo[2,3-d]pyrimidin-2-yl)amino)phenyl)-1,4-azaphosphinane 4-oxide]
301 to 1000	301 to 1000	< 100	COc1cc(P2(=O)CCN(C3CC3)CC2)ccc1Nc1nc(NCC2CC2)c2c(C(F)(F)F)c[nH]c2n1 [Example 421, 1-cyclopropyl-4-(4-((4-((cyclo-propylmeth-yl)amino)-5-(trifluoromethyl)-7H-pyrrolo[2,3-d]pyrimidin-2-yl)amino)-3-methoxyphenyl)-1,4-azaphosphinane 4-oxide]
